Data as given in ChEMBL document CHEMBL1681723, “Phellinstatin, a new inhibitor of enoyl-ACP reductase produced by the medicinal fungus Phellinus linteus” (Bioorg Med Chem Lett, 2011).
≈ marks a conversion by molar mass, not a printed value. Calls of active or inactive are those of the source. The rule behind the calls is not given here.

Columns and labels:
[1] = biological target: T1, Enoyl-[acyl-carrier-protein] reductase [NADPH] FabI (Staphylococcus aureus, UniProt Q6GI75); assay: (§1) Inhibition of Staphylococcus aureus enoyl-ACP reductase assessed as increase of NADPH level
T1 sequence (Q6GI75 whole entry): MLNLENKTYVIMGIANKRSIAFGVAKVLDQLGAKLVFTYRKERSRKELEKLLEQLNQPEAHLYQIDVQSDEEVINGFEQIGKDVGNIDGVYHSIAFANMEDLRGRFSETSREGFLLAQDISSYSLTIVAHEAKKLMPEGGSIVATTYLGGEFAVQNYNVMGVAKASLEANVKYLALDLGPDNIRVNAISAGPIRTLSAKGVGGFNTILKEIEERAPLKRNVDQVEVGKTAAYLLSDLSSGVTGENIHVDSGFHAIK

[2] = system: Staphylococcus aureus; assay: Antibacterial activity against Staphylococcus aureus RN4220 at 128 ug/ml; assay type: functional, organism-based
[3] = system: Staphylococcus aureus; assay: Antibacterial activity against methicillin-resistant Staphylococcus aureus CCARM 3167 at 128 ug/ml; assay type: functional, organism-based
[4] = biological target: T2, Enoyl-[acyl-carrier-protein] reductase [NADPH] FabI (Staphylococcus aureus) (UniProt Q6GI75); assay: as §1
T2 sequence (whole entry): T1 sequence (Q6GI75 whole entry)

[5] = system: Staphylococcus aureus; assay: Antibacterial activity against Staphylococcus aureus RN4220; assay type: functional
[6] = system: Staphylococcus aureus; assay: Antibacterial activity against methicillin-resistant Staphylococcus aureus CCARM 3167; assay type: functional

`O=c1cc(O)cc([C@H]2c3c(cc(/C=C/c4ccc(O)c(O)c4)oc3=O)O[C@@H]2c2ccc(O)c(O)c2)o1` [HYPHOLOMINE B] was tested. Which IC50 [1] did it give?
Its IC50 is 15.3 µM.

What about the Activity [2] of the same molecule?
Its Activity is “inactive”.

And the Activity [3]?
The Activity was “inactive”.

`O=c1cc(O)cc([C@H]2c3c(cc(/C=C/c4cc(O)c(O)cc4-c4c(O)cc(/C=C/c5ccc(O)c(O)c5)oc4=O)oc3=O)O[C@@H]2c2ccc(O)c(O)c2)o1` [PHELLINSTATIN] was tested. Which inhibition [4] did it give?
Its inhibition is “Dose-dependent effect”.

And the IC50 [1]?
The IC50 was 6 µM.

What about the MIC [5] of the same molecule?
Its MIC is 128 µg/mL (≈ 174 µM).

What about the MIC [6] of the same molecule?
Its MIC is 128 µg/mL (≈ 174 µM).
